# Tests used:
# Assay in all cases: Test G preemergence/postemergence greenhouse plant response rating 0 to 100
# purple nutsedge = format: in vivo, Cyperus rotundus; conditions: Rate 125 g/ha, 0 to 100 scale
# In short: (§1)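 Pre- and postemergence treatments used compound in non-phytotoxic solvent on potted greenhouse plants grown from seed, rhizome or plant part. Postemergence plants were at the 2–4 leaf stage; damage was assessed by eye versus untreated pots after 13–21 days.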
# smooth crabgrass = format: in vivo, Digitaria ischaemum; conditions: 0 to 100 scale
# In short: as §1
# pitted morningglory = format: in vivo, Ipomoea lacunosa; conditions: 0 to 100 scale
# In short: as §1
# peanut = format: in vivo, Arachis hypoagaea; conditions: 0 to 100 scale
# In short: as §1
# large crabgrass = format: in vivo, Digitaria sanguinalis; conditions: 0 to 100 scale
# In short: as §1
# bermudagrass = format: in vivo, Cynodon dactylon; conditions: 0 to 100 scale
# In short: as §1
# common purslane = format: in vivo, Portulaca oleracea; conditions: 0 to 100 scale
# In short: as §1
# alfalfa = format: in vivo, Medicago ativa; conditions: 0 to 100 scale
# In short: as §1
# yellow nutsedge = format: in vivo, Cyperus esculentus; conditions: Rate 125 g/ha, 0 to 100 scale
# In short: as §1
# guineagrass = format: in vivo, Panicum maximum; conditions: 0 to 100 scale
# In short: as §1
# itchgrass = format: in vivo, Rottboellia exaltata; conditions: 0 to 100 scale
# In short: as §1
# dallisgrass = format: in vivo, Paspalum dilatatum; conditions: 0 to 100 scale
# In short: as §1
# goosegrass = format: in vivo, Eleusine indica; conditions: 0 to 100 scale
# In short: as §1
# common ragweed = format: in vivo, Ambrosia elatior; conditions: 0 to 100 scale
# In short: as §1
# annual bluegrass = format: in vivo, Poa annua; conditions: 0 to 100 scale
# In short: as §1
# johnsongrass = format: in vivo, Sorghum halepense; conditions: 0 to 100 scale
# In short: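 Greenhouse pots, one species each; non-phytotoxic solvent vehicle. Read-out: visual injury vs untreated, 13–21 DAT. Dash denotes no result.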
# sandbur = format: in vivo, Cenchrus echinatus; conditions: 0 to 100 scale
# In short: as §1
compound,measurement,setting,value
COc1cc(-c2nn3c(c2Cl)CCCC3)c(F)cc1Cl [Compound 29],"Plant response rating, Purple Nutsedge",purple nutsedge; POSTEMERGENCE,0
same,"Plant response rating, Purple Nutsedge",purple nutsedge; PREEMERGENCE,0
same,"Plant response rating, Smooth Crabgras","smooth crabgrass; POSTEMERGENCE, Rate 125 g/ha",0
same,"Plant response rating, Smooth Crabgras","smooth crabgrass; POSTEMERGENCE, Rate 250 g/ha",0
same,"Plant response rating, Smooth Crabgras","smooth crabgrass; PREEMERGENCE, Rate 125 g/ha",0
same,"Plant response rating, Smooth Crabgras","smooth crabgrass; PREEMERGENCE, Rate 250 g/ha",100
same,"Plant response rating, Pit Morninglory","pitted morningglory; POSTEMERGENCE, Rate 125 g/ha",0
same,"Plant response rating, Pit Morninglory","pitted morningglory; POSTEMERGENCE, Rate 250 g/ha",70
same,"Plant response rating, Pit Morninglory","pitted morningglory; PREEMERGENCE, Rate 125 g/ha",0
same,"Plant response rating, Pit Morninglory","pitted morningglory; PREEMERGENCE, Rate 250 g/ha",30
same,"Plant response rating, Peanuts","peanut; POSTEMERGENCE, Rate 125 g/ha",0
same,"Plant response rating, Peanuts","peanut; POSTEMERGENCE, Rate 250 g/ha",0
same,"Plant response rating, Peanuts","peanut; PREEMERGENCE, Rate 125 g/ha",0
same,"Plant response rating, Peanuts","peanut; PREEMERGENCE, Rate 250 g/ha",0
same,"Plant response rating, Large Crabgrass","large crabgrass; POSTEMERGENCE, Rate 125 g/ha",0
same,"Plant response rating, Large Crabgrass","large crabgrass; POSTEMERGENCE, Rate 250 g/ha",0
same,"Plant response rating, Large Crabgrass","large crabgrass; PREEMERGENCE, Rate 125 g/ha",80
same,"Plant response rating, Large Crabgrass","large crabgrass; PREEMERGENCE, Rate 250 g/ha",100
same,"Plant response rating, Bermudagrass","bermudagrass; POSTEMERGENCE, Rate 125 g/ha",0
same,"Plant response rating, Bermudagrass","bermudagrass; POSTEMERGENCE, Rate 250 g/ha",0
same,"Plant response rating, Bermudagrass","bermudagrass; PREEMERGENCE, Rate 125 g/ha",0
same,"Plant response rating, Bermudagrass","bermudagrass; PREEMERGENCE, Rate 250 g/ha",50
same,"Plant response rating, Cmn Purslane","common purslane; POSTEMERGENCE, Rate 125 g/ha",90
same,"Plant response rating, Cmn Purslane","common purslane; POSTEMERGENCE, Rate 250 g/ha",80
same,"Plant response rating, Cmn Purslane","common purslane; PREEMERGENCE, Rate 125 g/ha",0
same,"Plant response rating, Cmn Purslane","common purslane; PREEMERGENCE, Rate 250 g/ha",100
same,"Plant response rating, Alfalfa Var.","alfalfa; POSTEMERGENCE, Rate 125 g/ha",0
same,"Plant response rating, Alfalfa Var.","alfalfa; POSTEMERGENCE, Rate 250 g/ha",70
same,"Plant response rating, Alfalfa Var.","alfalfa; PREEMERGENCE, Rate 125 g/ha",0
same,"Plant response rating, Alfalfa Var.","alfalfa; PREEMERGENCE, Rate 250 g/ha",0
same,"Plant response rating, Yellow Nutsedge",yellow nutsedge; POSTEMERGENCE,0
same,"Plant response rating, Yellow Nutsedge",yellow nutsedge; PREEMERGENCE,0
same,"Plant response rating, Guineagrass","guineagrass; POSTEMERGENCE, Rate 125 g/ha",0
same,"Plant response rating, Guineagrass","guineagrass; POSTEMERGENCE, Rate 250 g/ha",0
same,"Plant response rating, Guineagrass","guineagrass; PREEMERGENCE, Rate 125 g/ha",0
same,"Plant response rating, Guineagrass","guineagrass; PREEMERGENCE, Rate 250 g/ha",100
same,"Plant response rating, Itchgrass","itchgrass; POSTEMERGENCE, Rate 125 g/ha",0
same,"Plant response rating, Itchgrass","itchgrass; POSTEMERGENCE, Rate 250 g/ha",0
same,"Plant response rating, Itchgrass","itchgrass; PREEMERGENCE, Rate 125 g/ha",100
same,"Plant response rating, Itchgrass","itchgrass; PREEMERGENCE, Rate 250 g/ha",40
same,"Plant response rating, Dallisgrass","dallisgrass; POSTEMERGENCE, Rate 125 g/ha",0
same,"Plant response rating, Dallisgrass","dallisgrass; POSTEMERGENCE, Rate 250 g/ha",0
same,"Plant response rating, Dallisgrass","dallisgrass; PREEMERGENCE, Rate 125 g/ha",80
same,"Plant response rating, Dallisgrass","dallisgrass; PREEMERGENCE, Rate 250 g/ha",90
same,"Plant response rating, Goosegrass","goosegrass; POSTEMERGENCE, Rate 125 g/ha",0
same,"Plant response rating, Goosegrass","goosegrass; POSTEMERGENCE, Rate 250 g/ha",0
same,"Plant response rating, Goosegrass","goosegrass; PREEMERGENCE, Rate 125 g/ha",90
same,"Plant response rating, Goosegrass","goosegrass; PREEMERGENCE, Rate 250 g/ha",100
same,"Plant response rating, Cmn Ragweed","common ragweed; POSTEMERGENCE, Rate 125 g/ha",20
same,"Plant response rating, Cmn Ragweed","common ragweed; POSTEMERGENCE, Rate 250 g/ha",60
same,"Plant response rating, Cmn Ragweed","common ragweed; PREEMERGENCE, Rate 125 g/ha",20
same,"Plant response rating, Cmn Ragweed","common ragweed; PREEMERGENCE, Rate 250 g/ha",40
same,"Plant response rating, Ann Bluegrass","annual bluegrass; POSTEMERGENCE, Rate 125 g/ha",0
same,"Plant response rating, Ann Bluegrass","annual bluegrass; POSTEMERGENCE, Rate 250 g/ha",0
same,"Plant response rating, Ann Bluegrass","annual bluegrass; PREEMERGENCE, Rate 125 g/ha",0
same,"Plant response rating, Ann Bluegrass","annual bluegrass; PREEMERGENCE, Rate 250 g/ha",0
same,"Plant response rating, Johnsongrass","johnsongrass; POSTEMERGENCE, Rate 125 g/ha",0
same,"Plant response rating, Johnsongrass","johnsongrass; POSTEMERGENCE, Rate 250 g/ha",0
same,"Plant response rating, Johnsongrass","johnsongrass; PREEMERGENCE, Rate 125 g/ha",0
same,"Plant response rating, Johnsongrass","johnsongrass; PREEMERGENCE, Rate 250 g/ha",0
same,"Plant response rating, S. Sandbur","sandbur; POSTEMERGENCE, Rate 125 g/ha",0
same,"Plant response rating, S. Sandbur","sandbur; POSTEMERGENCE, Rate 250 g/ha",0
same,"Plant response rating, S. Sandbur","sandbur; PREEMERGENCE, Rate 125 g/ha",0
same,"Plant response rating, S. Sandbur","sandbur; PREEMERGENCE, Rate 250 g/ha",0

# — patent US6358885B1, “Substituted phenylheterocyclic herbicides” (Mississippi State University, priority 1992, dated 2002)
